Series [1] concerns Granzyme B. Conditions: donors 4-6, from 100 μg/ml, versus vehicle control.
Procedure: NK cells were cultured with the NK activation beads for two days at 37° C. in the presence of 5% CO2. […] Samples were then treated with eBioscience Intracellular Fixation & Permeabilization Buffer Set to allow staining of intracellular granzyme B. Marker expression was determined by flow cytometry and appropriate “Fluorescence-Minus-One controls” controls were used. Flow cytometry data was analysed using FlowJo analysis software and data was graphed using Graph Pad Prism.
CD56+ cells were isolated from three donor buffy coats by magnetic separation. […] Next, the effect of compound addition at different timepoints and doses, following either optimal or suboptimal NK activation was determined by measuring expression of the activation markers CD25, CD69 and Granzyme B on NK cells. […] Treatment was administered at 0, 6, 24 and 30 hours. The controls were 200 nM Cortisol and 500 nM Deuruxolitinib (Jak inhibitor).
The test system of series [2] is NK cells. In words: NK activation assay, CD25+CD69+ NK cells by flow cytometry. Type of series: cell-based, human. Conditions: for % inactivation relative to vehicle: human NK % CD25+CD69+ cells. How it is done:
IC50 is a measurement of how much of a drug is needed to inhibit a biological process by half.
Peripheral blood mononuclear cells (PBMC) were isolated over a density gradient from six donor buffy coats and CD56+NK were separated using magnetic selection. Purity of sorted NIK cells was assessed by flow cytometry using CD56 as a marker of NK cells.
Following magnetic isolation, NK cells were seeded at 5×10^5 NK cells per well in a 48 well plate alongside NK activation beads (prepared as per manufacturer's protocol) at a 1:1 bead to cell ratio, IL-2 (final concentration 500 IU/ml) and either prodrug/epinephrine at 5 different doses (see section 3.6 below for further details), cortisol/dexamethasone (positive controls) or vehicle (media only). NK cells were cultured with the NK activation beads for two days at 37° C. in the presence of 5% CO2. After two days, supernatants were collected from each condition for future TR-FRET analysis (AQV-24-001_AM-1 only, see below) and the remaining cells from each condition were assessed for expression of surface markers CD25, CD69 and for cell viability using eBioscience™ Fixable Viability Dye. Samples were then treated with eBioscience Intracellular Fixation & Permeabilization Buffer Set to allow staining of intracellular granzyme B. Marker expression was determined by flow cytometry and appropriate “Fluorescence-Minus-One controls” controls were used. Flow cytometry data was analysed using FlowJo analysis software and data was graphed using Graph Pad Prism.
The study was performed in: 3 donors Each experimental condition was tested in: singlicate. For Flow cytometry, viability was measured and cells were phenotyped for NK cell activation (CD25, CD69, granzyme B). Raw and analysed data are provided.
Each experimental condition was tested in: singlicate. For Flow cytometry, viability was measured and cells were phenotyped for NK cell activation (CD25, CD69, granzyme B). Raw and analysed data are provided. Supernatants were harvested in triplicate per condition and stored until further analysis of IFNγ content by TR-FRET. Data was analysed and graphed. Raw and analysed data are provided. […]

The conditions of series [3]: cited from earlier work.
Series [4] in a line: In vitro permeation and flux of dipivefrin topical gel through CelluSep. The format is in vitro ADME. Conditions: 5.0% dipivefrin (w/w) topical gel. How it is done: Both in vitro and ex vivo permeation was measured for the following formulation. […] Rapid release from the topical gel matrix was observed. Referring to FIG. 4A, the amount permeated (in ug) was measured as a function of time (in minutes). […] The flux (ug/cm^2*min) was measured as a function of time (minutes).

A short description of series [5]: Ex vivo permeation and flux of dipivefrin topical gel through buccal tissue. Conditions: through 24 hours. The format is in vitro ADME, porcine. Here is the method: (§1) The claimed topical compositions were tested for permeation using both porcine ear and buccal tissue.
(§2) The tested tissues were Porcine Ear vs. Buccal Tissue through 24 hours.

For series [6] the following is noted: male, Wistar Han, rat, in vivo. Here is the method: A study was conducted to evaluate the pharmacokinetics of the claimed composition in a rat model. The purpose of this study was to enable selection of dosing regimen to be used on Passive Cutaneous Anaphylaxis (PCA) model in mammalian subjects. In this study, 15 male rats were studied to model the effects of the claimed composition on passive cutaneous anaphylaxis with a topical route of exposure. […] The Wistar Han rat was chosen as the animal model for this study as it is an appropriate model to study the effects of drug candidates on passive cutaneous anaphylaxis, based on available literature.
In this study, the pharmaceutical composition was applied on the dorsal side of both ears for groups 2-5 and only on the left ear of group 1 using a gloved finger until absorbed. The topical gel was applied as an even layer with no rubbing required.
The dark gray bar represents concentration in ng/g after 30 minutes of exposure for both 1% (low dose) and 2.5% (high dose) compositions. The light gray bar represents concentration in ng/g after 60 minutes of exposure for both 1% (low dose) and 2.5% (high dose) compositions.

A short description of series [7]: Non-clinical pharmacokinetic study of 2.5% topical gel in minipigs. The format is in vivo. How it is done:
A non-clinical pharmacokinetic study was also conducted in minipigs. In this study, a 2.5% topical gel was applied at 30 mg/cm2 in 7, 10 and 12% body surface area (BSA) coverage respectively, and data was collected over 6 hours.

The nature of series [8]: Ex vivo permeation and flux of epinephrine prodrug topical gels through porcine ear tissue. Type of series: in vitro ADME. Conditions: topical gel, 2.5% to 10% API loading, 24 hours. Here is the method:
Both in vitro and ex vivo permeation was measured for the following formulation. […]
Exemplary formulations were evaluated including Formulations 1-3, with API loading from 2.5-10% w/w.
as §1, §2

On the set-up of series [9]: species or system Sinclair Nanopigs. Conditions: in vivo. Here is the method:
A study was conducted to evaluate the systemic pharmacokinetic characteristics of Dipivefrin Topical Gel when administered once by topical application to intact, abraded, and wounded skin of Sinclair Nanopigs™. The study design was as follows. Animals were food fasted for at least 8 hours. Animals were monitored until fully recovered. Anesthesia procedures were documented and retained in the study data. The dose formulations were administered to appropriate animals by topical application on the dorsal surface (Dose Site #1) once on Day 1. The dose site was and/or shaved and marked at least one day prior to Day 1. At least the four corners of the dose sites will be marked with indelible ink based on the appropriate dose area. At least the four corners of the tape stripping area were marked with indelible ink for Group 2 and 3 animals. The site for Group 2 and 3 animals was gently abraded via tape stripping (conducted 50 times). All animals will have a uniform topical application using a gloved hand and/or spatula to rub the entire dose amount throughout the total dose area (for 1 minute). Topical application to the dose area for Group 4 animals will include application of the dose amount over the created wounds. If an animal is observed to have test material remaining following the application time, the observation will be documented. Dose formulations will be allowed to equilibrate at ambient temperature for at least 15 minutes prior to and continuously throughout dose administration Prior to dermal (topical) application on Day 1, the dose site for Group 1 to 3 animals were wiped clean with water-moistened gauze or paper towels then wiped dry with dry gauze or paper towels. Following washing and drying, […]. On Day 1, Group 4 animals: The animal backs were prepared for wound creation by performing a surgical scrub. Two (2) wounds were created on the dorsal surface of each Group 4 animal within a 7×7 cm area using an 8 mm punch biopsy. Steps were taken to ensure the area designated for wound creation is within the total dose area (8×8 cm). […]

For series [10] the following is noted: human, in vivo. Here is the method:
A two-part clinical study was conducted for alopecia areata (AA) patients. AA is an autoimmune disease leading to hair loss on the scalp, face, and in more severe cases, other body areas. The mechanisms leading to AA are multifactorial, including an autoimmune response that results in the loss of hair follicle immune privilege. The patient will be given treatment based on disease severity (>50% involvement—JAK inhibitors; <50% involvement—corticosteroids).
In Part 1, single ascending doses of a single formulation of AQST-108 were given. […] The 1.0% AQST-108 strength was down-selected to Part 2.
In Part 2, a single dose of 1 of 3 formulations of 1.0% of AQST-108 was given.

For dipivefrin, in series [1], the “Median Fluorescence Intensity (MFI) of Granzyme B” value is reported as “decreasing to some extent”. In addition, in series [2] (doses up to 5 ng/mL, comparable to 20 nM Cortisol), the “reduction of NK cell activation as compared to control” value is “about 12%”. For the same compound, the “reduction in CD25+CD69+ NK cells compared to vehicle control” value in series [2] (higher doses, donors 4-6) is reported as 5-12%; in series [2] (lower doses, donors 2-3), 7-12%.

As to `CCOCCOCCO` [Diethylene glycol monoethyl ether], the “Log P (octanol:water)” value in series [3] is listed as −0.43.

`CNC[C@H](O)c1ccc(OC(=O)C(C)(C)C)c(OC(=O)C(C)(C)C)c1` [dipivefrin]: the “in vitro release from the topical gel matrix (permeation and flux)” value in [4] is listed as “Rapid release”. For the same compound, the “permeation through buccal tissue versus porcine ear” value in series [5] is listed as “reduced dipivefrin permeation”. Moreover, in [2] (500 nM), the “% inactivation relative to vehicle” value is 67%. Moreover, the “% inactivation relative to vehicle” value in [2] (1000 nM) came out at 68%. In series [2] (2500 nM), the “% inactivation relative to vehicle” value was found to be 66%. Besides, the “suppression of activation of NK cells, Epinephrine and Dipivefrin combined for analysis” value in series [2] (range of concentrations, exceeding IC50 at 70, 140 and 280 nM) is given as “effective suppression”. For the same compound, the “modulation of NK cell activity” value in series [2] (range of concentrations, exceeding IC50 at 140 and 280 nM) is reported as “effectively deactivated NK cells”. Further, the “duration of epinephrine exposure” value in series [6] is over 1 h. Moreover, the “duration of high exposure in dermis and epidermis” value in series [7] (30 mg/cm2, 7, 10 and 12% BSA) is “more than 6 hours”. Also, the systemic exposure result in series [7] (high body surface area coverage) was “no systemic exposure”. Also, in [8], the “permeation as a function of API loading” value is on record as “Dose proportional increases in permeation”. In addition, in [9], the “PK parameters in plasma, intact skin versus abraded skin” value was “no significant difference”. Also, in series [10], the AQST-108 plasma concentrations result is recorded as “No AQST-108 plasma concentrations”, the “serious adverse events (SAE) or topical adverse events (AE)” value is listed as “No serious adverse events” and the systemic epinephrine concentrations result is “within normal physiologic range”.
